Experimental data published in US8779140B2, “Crystal of fused pyridine compound salt” (Astellas Pharma Inc., priority 2010, dated 2014).
Blank lines part the entries; values can stand above or below the compound they belong to.

Legend:
[1] = molecular target: T1, JAK3 (Homo sapiens, UniProt P52333); settings: as described in Patent Document 1; cited from earlier work
T1 sequence (P52333 1-1124): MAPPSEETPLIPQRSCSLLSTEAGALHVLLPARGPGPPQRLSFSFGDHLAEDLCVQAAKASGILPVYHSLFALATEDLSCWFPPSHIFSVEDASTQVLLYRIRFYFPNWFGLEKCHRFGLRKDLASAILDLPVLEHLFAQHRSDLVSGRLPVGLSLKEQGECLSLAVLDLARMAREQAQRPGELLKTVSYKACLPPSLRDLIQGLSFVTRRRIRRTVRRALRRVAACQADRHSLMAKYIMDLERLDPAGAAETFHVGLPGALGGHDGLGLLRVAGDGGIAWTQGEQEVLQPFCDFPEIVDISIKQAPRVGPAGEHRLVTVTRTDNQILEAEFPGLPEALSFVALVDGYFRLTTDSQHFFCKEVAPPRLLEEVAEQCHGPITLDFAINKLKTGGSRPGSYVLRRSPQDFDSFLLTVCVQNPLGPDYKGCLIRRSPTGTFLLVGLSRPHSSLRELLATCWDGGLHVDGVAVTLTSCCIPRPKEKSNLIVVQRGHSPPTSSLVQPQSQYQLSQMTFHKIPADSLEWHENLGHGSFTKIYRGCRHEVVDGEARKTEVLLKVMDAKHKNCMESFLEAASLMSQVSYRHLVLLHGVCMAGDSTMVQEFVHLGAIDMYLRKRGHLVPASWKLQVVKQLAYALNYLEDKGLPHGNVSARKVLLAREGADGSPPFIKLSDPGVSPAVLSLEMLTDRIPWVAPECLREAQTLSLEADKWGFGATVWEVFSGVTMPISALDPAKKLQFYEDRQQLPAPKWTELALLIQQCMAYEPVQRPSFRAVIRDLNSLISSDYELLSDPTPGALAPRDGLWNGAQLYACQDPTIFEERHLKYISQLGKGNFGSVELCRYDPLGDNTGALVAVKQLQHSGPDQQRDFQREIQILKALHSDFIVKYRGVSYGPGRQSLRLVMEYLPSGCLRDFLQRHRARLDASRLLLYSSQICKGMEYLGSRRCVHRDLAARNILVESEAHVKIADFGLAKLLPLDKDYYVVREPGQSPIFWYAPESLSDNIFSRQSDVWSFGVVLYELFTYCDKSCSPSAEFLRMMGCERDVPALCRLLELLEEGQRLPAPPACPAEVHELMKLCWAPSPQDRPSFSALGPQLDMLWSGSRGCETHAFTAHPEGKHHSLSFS

[2] = Stability test of crystals (storage at 70° C., 70° C./75% RH, Xe lamp; HPLC related substances and powder X-ray diffraction); settings: for Physical stability / change in the crystal forms: stored at 70° C. or 70° C.·75% RH for 2 weeks
[3] = Solubility measured with a 80% aqueous EtOH solution; assay type: physicochemical; settings: organic solvent or mixture
Method: The solubility was measured with a 80% aqueous EtOH solution. Further, the crystals of 0.5 L-tartrate and lactate were prepared as crystallized from a crystallization solvent described in Tables below.

[4] = Solubility test in 84% aqueous EtOH solution; assay type: physicochemical
Method: After stirring, the supernatant was filtered and the concentration of the filtrate was quantified by means of HPLC.
HPLC; Columns to be charged: Unison UK Phenyl (manufactured by Imtakt Corporation), particle diameter 3 μm, 4.6 mm×250 mm
Mobile phase: perchlorate buffer at pH 2.5 (0.01 mol/L)^(note)/mixed solution with MeCN for LC (4:1),
Flow rate of mobile phase: about 1.0 mL/min. Detector: ultraviolet absorptiometer (wavelength for measurement: 235 nm), column temperature: 50° C. (column thermostat vessel was used)

[5] = stirred at room temperature in a 84% EtOH solution
[6] = 70° C. 75% RH, 2 weeks, Table 1, hydrobromide
[7] = 70° C., 2 weeks, Table 1, hydrobromide
[8] = Initial (stored in a refrigerator), Table 1, hydrobromide
[9] = Xe lump 40H, Table 1, hydrobromide
[10] = 70° C. 75% RH, 2 weeks, Table 1
[11] = Initial (stored in a refrigerator), Table 1

SMILES: NC(=O)c1cnc2[nH]ccc2c1N[C@@H]1[C@@H]2CC3C[C@H]1C[C@@](O)(C3)C2 [Ex. 121, 4-{[(1R,2s,3S,5s,7s)-5-hydroxy-2-adamantyl]amino}-1H-pyrrolo[2,3-b]pyridine-5-carboxamide]
JAK3 inhibitory activity [1]: excellent activity
Stability with respect to temperature and humidity ([2]; crystallized free form): not stable with respect to temperature and humidity even when crystallized

Solubility [3]: < 10 mg/mL
SMILES: NC(=O)c1cnc2[nH]ccc2c1N[C@@H]1[C@@H]2CC3C[C@H]1C[C@@](O)(C3)C2 [Form A01, 4-{[(1R,2s,3S,5s,7s)-5-hydroxy-2-adamantyl]amino}-1H-pyrrolo[2,3-b]pyridine-5-carboxamide monohydrate, reference compound]
Change of crystal on storage ([2]; no humidity at 70° C.): transition to an anhydride in a free form

LC: total amount of the related substances ([2]; 70° C. 2 W, Table 3): 0.19%
LC: total amount of the related substances ([2]; 70° C. 75% RH 2 W, Table 3): 0.25%
LC: total amount of the related substances ([2]; Initial, Table 3): 0.25%
LC: total amount of the related substances ([2]; Xe lump 40H, Table 3): 0.19%
SMILES: NC(=O)c1cnc2[nH]ccc2c1N[C@@H]1[C@@H]2C[C@@H]3C[C@H]1C[C@@](O)(C3)C2.O=C(O)CCC(=O)O [Form A24, 4-{[(1R,2s,3S,5s,7s)-5-hydroxy-2-adamantyl]amino}-1H-pyrrolo[2,3-b]pyridine-5-carboxamide succinate]

LC: total amount of the related substances ([2]; 70° C. 2 W, Table 3): 0.48%
LC: total amount of the related substances ([2]; 70° C. 75% RH 2 W, Table 3): 0.48%
LC: total amount of the related substances ([2]; Initial, Table 3): 0.49%
LC: total amount of the related substances ([2]; Xe lump 40H, Table 3): 0.79%
SMILES: Cl.NC(=O)c1cnc2[nH]ccc2c1N[C@@H]1[C@@H]2C[C@@H]3C[C@H]1C[C@@](O)(C3)C2 [Form A33, 4-{[(1R,2s,3S,5s,7s)-5-hydroxy-2-adamantyl]amino}-1H-pyrrolo[2,3-b]pyridine-5-carboxamide monohydrochloride]

LC: total amount of the related substances ([2]; 70° C. 2 W, Table 3): 0.10%
LC: total amount of the related substances ([2]; 70° C. 75% RH 2 W, Table 3): 0.10%
LC: total amount of the related substances ([2]; Initial, Table 3): 0.10%
LC: total amount of the related substances ([2]; Xe lump 40H, Table 3): 0.30%
SMILES: Cl.NC(=O)c1cnc2[nH]ccc2c1N[C@@H]1[C@@H]2C[C@@H]3C[C@H]1C[C@@](O)(C3)C2.O [Form A34, 4-{[(1R,2s,3S,5s,7s)-5-hydroxy-2-adamantyl]amino}-1H-pyrrolo[2,3-b]pyridine-5-carboxamide monohydrochloride hydrate]

LC: total amount of the related substances ([2]; 70° C. 75% RH, 2 weeks, Table 1, monohydrobromide): 0.28%
LC: total amount of the related substances ([2]; 70° C., 2 weeks, Table 1, monohydrobromide): 0.34%
LC: total amount of the related substances ([2]; Initial (stored in a refrigerator), Table 1, monohydrobromide): 0.43%
LC: total amount of the related substances ([2]; Xe lump 40H, Table 1, monohydrobromide): 0.76%
SMILES: Br.NC(=O)c1cnc2[nH]ccc2c1N[C@@H]1[C@@H]2C[C@@H]3C[C@H]1C[C@@](O)(C3)C2 [Form A36, 4-{[(1R,2s,3S,5s,7s)-5-hydroxy-2-adamantyl]amino}-1H-pyrrolo[2,3-b]pyridine-5-carboxamide monohydrobromide]

Solubility ([4]; 25° C., hydrobromide): 37.2 mg/mL
Solubility ([4]; 35° C., hydrobromide): 45.5 mg/mL
Solubility ([4]; 50° C., hydrobromide): 53.8 mg/mL
LC: total amount of the related substances [2, 6]: 0.43%
LC: total amount of the related substances [2, 7]: 0.44%
LC: total amount of the related substances [2, 8]: 0.44%
LC: total amount of the related substances [2, 9]: 0.77%
Physical stability / change in the crystal forms [2]: physically stable
SMILES: Br.NC(=O)c1cnc2[nH]ccc2c1N[C@@H]1[C@@H]2C[C@@H]3C[C@H]1C[C@@](O)(C3)C2 [Form A61, 4-{[(1R,2s,3S,5s,7s)-5-hydroxy-2-adamantyl]amino}-1H-pyrrolo[2,3-b]pyridine-5-carboxamide hydrobromide]
Transition of crystal form [5]: underwent transition to a Form B45 after 4 hours

Solubility ([4]; 25° C., hydrobromide): 36.8 mg/mL
Solubility ([4]; 35° C., hydrobromide): 46.0 mg/mL
Solubility ([4]; 50° C., hydrobromide): 48.9 mg/mL
LC: total amount of the related substances [2, 6]: 1.51%
LC: total amount of the related substances [2, 7]: 1.64%
LC: total amount of the related substances [2, 8]: 1.60%
LC: total amount of the related substances [2, 9]: 1.32%
Physical stability / change in the crystal forms [2]: physically stable
SMILES: Br.NC(=O)c1cnc2[nH]ccc2c1N[C@@H]1[C@@H]2C[C@@H]3C[C@H]1C[C@@](O)(C3)C2 [Form A87, 4-{[(1R,2s,3S,5s,7s)-5-hydroxy-2-adamantyl]amino}-1H-pyrrolo[2,3-b]pyridine-5-carboxamide hydrobromide]

Solubility ([4]; 25° C.): 35.0 mg/mL
Solubility ([4]; 35° C.): 44.1 mg/mL
Solubility ([4]; 50° C.): 60.1 mg/mL
LC: total amount of the related substances [2, 10]: 0.43%
LC: total amount of the related substances ([2]; 70° C., 2 weeks, Table 1): 0.43%
LC: total amount of the related substances [2, 11]: 0.43%
LC: total amount of the related substances ([2]; Xe lump 40H, Table 1): 0.48%
SMILES: Br.NC(=O)c1cnc2[nH]ccc2c1N[C@@H]1[C@@H]2C[C@@H]3C[C@H]1C[C@@](O)(C3)C2.O [Form B11, 4-{[(1R,2s,3S,5s,7s)-5-hydroxy-2-adamantyl]amino}-1H-pyrrolo[2,3-b]pyridine-5-carboxamide hydrobromide monohydrate]

Solubility ([4]; 25° C.): 36.1 mg/mL
Solubility ([4]; 35° C.): 46.3 mg/mL
Solubility ([4]; 50° C.): 58.2 mg/mL
LC: total amount of the related substances [2, 10]: 0.05%
LC: total amount of the related substances ([2]; 70° C., 2 weeks, Table 1): 0.05%
LC: total amount of the related substances [2, 11]: 0.00%
LC: total amount of the related substances ([2]; Xe lump 40H, Table 1): 0.05%
SMILES: Br.NC(=O)c1cnc2[nH]ccc2c1N[C@@H]1[C@@H]2C[C@@H]3C[C@H]1C[C@@](O)(C3)C2.O.O [Form B21, 4-{[(1R,2s,3S,5s,7s)-5-hydroxy-2-adamantyl]amino}-1H-pyrrolo[2,3-b]pyridine-5-carboxamide hydrobromide dihydrate]

Solubility rank among crystal forms [4]: lowest solubility crystal form
Solubility ([4]; 25° C., hydrobromide): 23.7 mg/mL
Solubility ([4]; 35° C., hydrobromide): 29.4 mg/mL
Solubility ([4]; 50° C., hydrobromide): 36.7 mg/mL
LC: total amount of the related substances [2, 6]: 0.11%
LC: total amount of the related substances [2, 7]: 0.11%
LC: total amount of the related substances [2, 8]: 0.11%
LC: total amount of the related substances [2, 9]: 0.11%
Physical stability / change in the crystal forms [2]: physically stable
SMILES: Br.NC(=O)c1cnc2[nH]ccc2c1N[C@@H]1[C@@H]2C[C@@H]3C[C@H]1C[C@@](O)(C3)C2 [Form B45, 4-{[(1R,2s,3S,5s,7s)-5-hydroxy-2-adamantyl]amino}-1H-pyrrolo[2,3-b]pyridine-5-carboxamide hydrobromide]

Change of crystal on storage ([2]; with humidity at 70° C.): changed to hydrate
SMILES: NC(=O)c1cnc2[nH]ccc2c1N[C@@H]1[C@@H]2CC3C[C@H]1C[C@@](O)(C3)C2 [anhydride in a free form, reference compound]

SMILES: Br.NC(=O)c1cnc2[nH]ccc2c1N[C@@H]1[C@@H]2C[C@@H]3C[C@H]1C[C@@](O)(C3)C2 [hydrobromide, 4-{[(1R,2s,3S,5s,7s)-5-hydroxy-2-adamantyl]amino}-1H-pyrrolo[2,3-b]pyridine-5-carboxamide hydrobromide]
Storage stability in a solid state [2]: excellent storage stability in a solid state
